# Literature values as cited in US20150104528A1, “TREATMENT FOR DEPRESSION AND OTHER MENTAL CONDITIONS WITH SYNTHETIC ISOTOPE-MODIFIED LITHIUM” (priority 2013, published 2015).
# Tested on: female mother rats
# Conditions: female mother rats fed the substance; same dosage level for both groups
smiles,measurement,value
[6Li] [lithium-6],state of alertness compared to control rats fed a placebo,very high
